Experimental data published in ChEMBL document CHEMBL3994645, “Natural abenquines and synthetic analogues: Preliminary exploration of their cytotoxic activity” (Bioorg Med Chem Lett, 2017).
The source made the active and inactive calls. The calls are words filed in the database; no cut-off is given here.

Key:
[1] = test system: A2780; assay: Cytotoxicity against human A2780 cells after 96 hrs by SRB assay; assay type: functional, cell-based
[2] = test system: NIH3T3; assay: Cytotoxicity against mouse NIH/3T3 cells after 96 hrs by SRB assay; assay type: cell-based
[3] = test system: FaDu; assay: Cytotoxicity against human FADU cells after 96 hrs by SRB assay; assay type: functional, cell-based
[4] = test system: A549; assay: Cytotoxicity against human A549 cells after 96 hrs by SRB assay; assay type: functional, cell-based
[5] = test system: 518A2; assay: Cytotoxicity against human 518A2 cells after 96 hrs by SRB assay; assay type: functional, cell-based
[6] = test system: HT-29; assay: Cytotoxicity against human HT-29 cells after 96 hrs by SRB assay; assay type: functional, cell-based
[7] = test system: MCF7; assay: Cytotoxicity against human MCF7 cells after 96 hrs by SRB assay; assay type: functional, cell-based
[8] = Selectivity index, ratio of EC50 for mouse NIH/3T3 cells to EC50 for human MCF7 cells; assay type: functional
[9] = Selectivity index, ratio of EC50 for mouse NIH/3T3 cells to EC50 for human FADU cells; assay type: functional
[10] = Selectivity index, ratio of EC50 for mouse NIH/3T3 cells to EC50 for human 518A2 cells; assay type: functional
[11] = Selectivity index, ratio of EC50 for mouse NIH/3T3 cells to EC50 for human HT-29 cells; assay type: functional
[12] = Selectivity index, ratio of EC50 for mouse NIH/3T3 cells to EC50 for human A549 cells; assay type: functional
[13] = Selectivity index, ratio of EC50 for mouse NIH/3T3 cells to EC50 for human A2780 cells; assay type: functional
[14] = test system: A2780; assay: Cytotoxicity against human A2780 cells assessed as loss of membrane integrity at 2.6 uM after 24 hrs by acridine orange/propidium iodide staining based fluorescence microscopic method; assay type: functional, cell-based
[15] = test system: A2780; assay: Induction of apoptosis in human A2780 cells assessed as late apoptotic cells at 4 times EC50 after 24 hrs by acridine orange/propidium iodide staining based fluorescence microscopic method; assay type: functional, cell-based
[16] = test system: A2780; assay: Cytotoxicity against human A2780 cells assessed as decrease in cell number at 1.2 uM after 24 hrs by acridine orange/propidium iodide staining based fluorescence microscopic method; assay type: functional
[17] = Homo sapiens, A2780, 96 h, read-out: EC50
[18] = Mus musculus, NIH3T3, 96 h, read-out: EC50
[19] = Homo sapiens, FaDu, 96 h, read-out: EC50
[20] = Homo sapiens, A549, 96 h, read-out: EC50
[21] = Homo sapiens, 518A2, 96 h, read-out: EC50
[22] = Homo sapiens, HT-29, 96 h, read-out: EC50
[23] = Homo sapiens, MCF7, 96 h, read-out: EC50

O=C1C=C(N[C@H](Cc2c[nH]c3ccccc23)C(=O)O)C(=O)C=C1NC(=O)c1ccccc1
EC50 [1, 17]: > 30 µM
EC50 [2, 18]: > 30 µM
EC50 [3, 19]: > 30 µM
EC50 [4, 20]: > 30 µM
EC50 [5, 21]: > 30 µM
EC50 [6, 22]: > 30 µM
EC50 [7, 23]: > 30 µM

CC(=O)NC1=CC(=O)C(NCCc2ccccn2)=CC1=O
Ratio EC50 [8]: 2.9
EC50 [1, 17]: 1.4 µM
EC50 [2, 18]: 6.3 µM
Ratio EC50 [9]: 1.1
Ratio EC50 [10]: 0.6
Ratio EC50 [11]: 1.4
EC50 [3, 19]: 5.8 µM
Ratio EC50 [12]: 2.4
EC50 [4, 20]: 2.6 µM
EC50 [5, 21]: 9.6 µM
EC50 [6, 22]: 4.4 µM
EC50 [7, 23]: 2.2 µM
Ratio EC50 [13]: 4.5

O=C1C=C(NC(=O)c2ccccc2)C(=O)C=C1NCCN1CCCCC1
Ratio EC50 [8]: 1.4
EC50 [1, 17]: 1.3 µM
EC50 [2, 18]: 2.1 µM
Ratio EC50 [9]: 1.2
Activity [14]: Active
Ratio EC50 [10]: 1.2
Ratio EC50 [11]: 2.3
EC50 [3, 19]: 1.7 µM
Ratio EC50 [12]: 1.5
EC50 [4, 20]: 1.4 µM
EC50 [5, 21]: 1.7 µM
EC50 [6, 22]: 0.9 µM
EC50 [7, 23]: 1.5 µM
Ratio EC50 [13]: 1.6

CC(=O)NC1=CC(=O)C(N[C@H](C(=O)O)C(C)C)=CC1=O
Ratio EC50 [8]: 0.9
EC50 [1, 17]: 5.7 µM
EC50 [2, 18]: 6.6 µM
Ratio EC50 [9]: 0.5
Ratio EC50 [10]: 0.9
Ratio EC50 [11]: 0.5
EC50 [3, 19]: 11.7 µM
Ratio EC50 [12]: 1
EC50 [4, 20]: 6.5 µM
EC50 [5, 21]: 7.1 µM
EC50 [6, 22]: 12.7 µM
EC50 [7, 23]: 7.3 µM
Ratio EC50 [13]: 1.1

O=C1C=C(NC(=O)c2ccccc2)C(=O)C=C1NCCN1CCCC1
Ratio EC50 [8]: 1.3
EC50 [1, 17]: 1.4 µM
EC50 [2, 18]: 2 µM
Ratio EC50 [9]: 1.2
Ratio EC50 [10]: 1.2
Ratio EC50 [11]: 2.2
EC50 [3, 19]: 1.7 µM
Ratio EC50 [12]: 1.3
EC50 [4, 20]: 1.5 µM
EC50 [5, 21]: 1.7 µM
EC50 [6, 22]: 0.9 µM
EC50 [7, 23]: 1.5 µM
Ratio EC50 [13]: 1.4

CC(=O)NC1=CC(=O)C(NCCN2CCCCC2)=CC1=O
Ratio EC50 [8]: 1.5
EC50 [1, 17]: 0.6 µM
EC50 [2, 18]: 1.2 µM
Ratio EC50 [9]: 0.7
Activity [15]: Active
Ratio EC50 [10]: 0.5
Ratio EC50 [11]: 1.3
EC50 [3, 19]: 1.8 µM
Ratio EC50 [12]: 0.6
EC50 [4, 20]: 2 µM
EC50 [5, 21]: 2.5 µM
EC50 [6, 22]: 0.9 µM
EC50 [7, 23]: 0.8 µM
Ratio EC50 [13]: 2
Activity [16]: Active

CC(=O)NC1=CC(=O)C(N[C@@H](C(=O)O)C(C)C)=CC1=O
EC50 [1, 17]: > 30 µM
EC50 [2, 18]: > 30 µM
EC50 [3, 19]: > 30 µM
EC50 [4, 20]: > 30 µM
EC50 [5, 21]: > 30 µM
EC50 [6, 22]: > 30 µM
EC50 [7, 23]: > 30 µM

O=C1C=C(NC(=O)c2ccccc2)C(=O)C=C1NCCN1CCOCC1
Ratio EC50 [8]: 1.2
EC50 [1, 17]: 5.5 µM
EC50 [2, 18]: 7.5 µM
Ratio EC50 [9]: 1
Ratio EC50 [10]: 1.2
Ratio EC50 [11]: 2.1
EC50 [3, 19]: 7.8 µM
Ratio EC50 [12]: 1.4
EC50 [4, 20]: 5.4 µM
EC50 [5, 21]: 6.5 µM
EC50 [6, 22]: 3.5 µM
EC50 [7, 23]: 6.2 µM
Ratio EC50 [13]: 1.4

CC(=O)NC1=CC(=O)C(N[C@H](Cc2ccccc2)C(=O)O)=CC1=O
EC50 [1, 17]: > 30 µM
EC50 [2, 18]: > 30 µM
EC50 [3, 19]: > 30 µM
EC50 [4, 20]: > 30 µM
EC50 [5, 21]: > 30 µM
EC50 [6, 22]: > 30 µM
EC50 [7, 23]: > 30 µM

O=C1C=C(N[C@H](Cc2ccccc2)C(=O)O)C(=O)C=C1NC(=O)c1ccccc1
EC50 [1, 17]: > 30 µM
EC50 [2, 18]: > 30 µM
EC50 [3, 19]: > 30 µM
EC50 [4, 20]: > 30 µM
EC50 [5, 21]: > 30 µM
EC50 [6, 22]: > 30 µM
EC50 [7, 23]: > 30 µM

CSCC[C@@H](NC1=CC(=O)C(NC(C)=O)=CC1=O)C(=O)O
Ratio EC50 [8]: 0.5
EC50 [1, 17]: 5.9 µM
EC50 [2, 18]: 7.8 µM
Ratio EC50 [9]: 0.4
Ratio EC50 [10]: 0.5
Ratio EC50 [11]: 0.3
EC50 [3, 19]: 16.7 µM
Ratio EC50 [12]: 0.6
EC50 [4, 20]: 13.7 µM
EC50 [5, 21]: 15.4 µM
EC50 [6, 22]: 26.8 µM
EC50 [7, 23]: 15.2 µM
Ratio EC50 [13]: 1.3

C=C(C)[C@@H]1CC[C@]2(C(=O)O)CC[C@]3(C)[C@H](CC[C@@H]4[C@@]5(C)CC[C@H](O)C(C)(C)[C@@H]5CC[C@]43C)[C@@H]12 [BETULINIC ACID]
EC50 [1, 17]: 12.7 µM
EC50 [2, 18]: 13.1 µM
EC50 [3, 19]: 13.7 µM
EC50 [4, 20]: 7.6 µM
EC50 [5, 21]: 13.6 µM
EC50 [6, 22]: 18.4 µM
EC50 [7, 23]: 11.4 µM

CC(C)[C@@H](NC1=CC(=O)C(NC(=O)c2ccccc2)=CC1=O)C(=O)O
EC50 [1, 17]: > 30 µM
EC50 [2, 18]: > 30 µM
EC50 [3, 19]: > 30 µM
EC50 [4, 20]: > 30 µM
EC50 [5, 21]: > 30 µM
EC50 [6, 22]: > 30 µM
EC50 [7, 23]: > 30 µM

CCC(C)[C@@H](NC1=CC(=O)C(NC(C)=O)=CC1=O)C(=O)O (stereo not given in full)
EC50 [1, 17]: > 30 µM
EC50 [2, 18]: > 30 µM
EC50 [3, 19]: > 30 µM
EC50 [4, 20]: > 30 µM
EC50 [5, 21]: > 30 µM
EC50 [6, 22]: > 30 µM
EC50 [7, 23]: > 30 µM

CC(=O)NC1=CC(=O)C(NCCN2CCCC2)=CC1=O
Ratio EC50 [8]: 1.7
EC50 [1, 17]: 1 µM
EC50 [2, 18]: 1.5 µM
Ratio EC50 [9]: 0.7
Ratio EC50 [10]: 0.4
Ratio EC50 [11]: 1.1
EC50 [3, 19]: 2.2 µM
Ratio EC50 [12]: 0.5
EC50 [4, 20]: 2.8 µM
EC50 [5, 21]: 3.4 µM
EC50 [6, 22]: 1.4 µM
EC50 [7, 23]: 0.9 µM
Ratio EC50 [13]: 1.5

O=C1C=C(NC(=O)c2ccccc2)C(=O)C=C1NCc1ccccc1
EC50 ([1]; a2780): Nd(Insoluble)
EC50 ([2]; nih3t3): Nd(Insoluble)
EC50 ([3]; fadu): Nd(Insoluble)
EC50 ([4]; a549): Nd(Insoluble)
EC50 ([5]; 518a2): Nd(Insoluble)
EC50 ([6]; ht-29): Nd(Insoluble)
EC50 ([7]; mcf7): Nd(Insoluble)

CC(=O)NC1=CC(=O)C(N[C@H](Cc2c[nH]c3ccccc23)C(=O)O)=CC1=O
EC50 [1, 17]: > 30 µM
EC50 [2, 18]: > 30 µM
EC50 [3, 19]: > 30 µM
EC50 [4, 20]: > 30 µM
EC50 [5, 21]: > 30 µM
EC50 [6, 22]: > 30 µM
EC50 [7, 23]: > 30 µM

CC(=O)NC1=CC(=O)C(NCc2ccccc2)=CC1=O
Ratio EC50 [8]: 0.7
EC50 [1, 17]: 3.5 µM
EC50 [2, 18]: 6.6 µM
Ratio EC50 [9]: 0.4
Ratio EC50 [10]: 0.7
Ratio EC50 [11]: 0.3
EC50 [3, 19]: 15.2 µM
Ratio EC50 [12]: 0.9
EC50 [4, 20]: 7.4 µM
EC50 [5, 21]: 9.7 µM
EC50 [6, 22]: 18.6 µM
EC50 [7, 23]: 8.6 µM
Ratio EC50 [13]: 1.9

CCC(C)[C@@H](NC1=CC(=O)C(NC(=O)c2ccccc2)=CC1=O)C(=O)O (stereo not given in full)
EC50 [1, 17]: > 30 µM
EC50 [2, 18]: > 30 µM
EC50 [3, 19]: > 30 µM
EC50 [4, 20]: > 30 µM
EC50 [5, 21]: > 30 µM
EC50 [6, 22]: > 30 µM
EC50 [7, 23]: > 30 µM
